Results reported in US5314904A (priority 1991, dated 1994).
In brackets after ≈: the same amount, converted by molar mass. Read-outs that look alike come from different tables or passages of the source.

Assays:
[1] = system: Mobiluncus spp.; experiment: MIC in vitro, Mobiluncus spp. (NCCLS M11-T2, agar Wilken-Chalgren); assay type: cell-based; settings: for MIC: read-out: MIC Range of Concentration Value
Description: (§1) Forty strains of Bacteroides bivius-disiens, 23 strains of Gardnerella vaginalis, 31 strains of the species Lactobacillus and 13 strains of Mobiluncus, 35 strains (from Iowa) and 25 strains (from Manitoba) of Neisseria gonorrhoeae, 25 strains of Haemophilus ducreyi and 6 strains of Chlamydia trachomatis have been analyzed.
(§2) Forty strains of Bacteroides bivius-disiens, 23 strains of Gardnerella vaginalis, 31 strains of Lactobacillus spp., 13 strains of Mobiluncus spp., 6 strains of Chlamydia trachomatis, 60 strains of Neisseria gonorrhoeae and 25 strains of Haemophilus ducreyi were obtained by culture collections supplied from: […]

[2] = system: Gardnerella vaginalis; experiment: MIC in vitro, Gardnerella vaginalis (NCCLS M11-T2, agar Wilken-Chalgren); assay type: cell-based; settings: for MIC: read-out: MIC Range of Concentration Value
Description: as §1, §2

[3] = system: Lactobacillus spp.; experiment: MIC in vitro, Lactobacillus spp. (NCCLS M11-T2, agar Wilken-Chalgren); assay type: cell-based; settings: for MIC: read-out: MIC Range of Concentration Value
Description: as §1, §2

[4] = system: Bacteroides bivius-disiens; experiment: MIC in vitro, Bacteroides bivius-disiens (NCCLS M11-T2, agar Wilken-Chalgren); assay type: cell-based; settings: 40 strains; for MIC: read-out: MIC Range of Concentration Value
Description: as §1, §2

[5] = cited from earlier work
[6] = system: Ureaplasma urealyticum; experiment: MIC in vitro, Ureaplasma urealyticum (Hoban et al. method); assay type: cell-based
Description: (§3) The determination of the MIC with respect to Neisseria gonorrhoeae has been carried out according to the NCCLS M7-A2 method, while the determination of th MIC with respect to Chlamydia trachomatis, Mycoplasma hominis, Ureaplasma urealyticum and Haemophilus ducrey has been carried out according to Hoban D. et al. "In vitro activity of lomefloxacin against Chlamydia trachomatis, Neisseria gonorrhoeae, Haemophilus ducreyi, Mycoplasma hominis and Ureaplasma urealyticum." Diagn. Microbiol. Infect. Dis., 12, 83S-86S (1989).

[7] = system: Mycoplasma hominis; experiment: MIC in vitro, Mycoplasma hominis (Hoban et al. method); assay type: cell-based; settings: Metamycoplasma hominis
Description: as §3

[8] = system: Neisseria gonorrhoeae; experiment: MIC in vitro, Neisseria gonorrhoeae (NCCLS M7-A2); assay type: cell-based
Description: as §1
(§4) Forty strains of Bacteroides bivius-disiens, 23 strains of Gardnerella vaginalis, 31 strains of Lactobacillus spp., 13 strains of Mobiluncus spp., 6 strains of Chlamydia trachomatis, 60 strains of Neisseria gonorrhoeae and 25 strains of Haemophilus ducreyi were obtained by culture collections supplied from:
as §3

[9] = system: Chlamydia trachomatis; experiment: MIC in vitro, Chlamydia trachomatis (Hoban et al. method); assay type: cell-based
Description: (§5) Forty strains of Bacteroides bivius-disiens, 23 strains of Gardnerella vaginalis, 31 strains of the species Lactobacillus and 13 strains of Mobiluncus, 35 strains (from Iowa) and 25 strains (from Manitoba) of Neisseria gonorrhoeae, 25 strains of Haemophilus ducreyi and 6 strains of Chlamydia trachomatis have been analyzed. The determination of the minimum inhibitory concentration on the strains of the four types of anaerobic bacteria has been carried out according to NCCLS M11-T2 method (National Committee for Clinical Laboratory Standards. Methods for antimicrobial testing of anaerobic bacteria--second edition: Tentative Standard. NCCLS M11-T2, Villanova, Pa. NCCLS; 1989) on agar Wilken-Chalgren (Difco Laboratories, Detroit, Mich.) to which blood has been added.
as §4, §3

[10] = system: Haemophilus ducreyi; experiment: MIC in vitro, Haemophilus ducreyi (Hoban et al. method); assay type: cell-based
Description: as §5
The strains of Haemophilus ducreyi have been grown on chocolate agar for 24 hours at 35° C. in an atmosphere of carbon dioxide. After each material has been isolated, it is applied on chocolate agar containing appropriate dilution of antibiotic (Hoban D. et al. "In vitro activity of lomefloxacin against Chlamydia trachomatis, Neisseria gonorrhoeae, Haemophilus ducreyi, Mycoplasma hominis and Ureaplasma urealyticum". Diagn. Microbiol. Infect. Dis. 12, 83S-86S, 1989). The plates are incubated in an atmosphere containing carbon dioxide with increasing moisture at 35° C. for 48 hours.
as §2

| SMILES | MIC50 ([1]; 13 strains) | MIC90 ([1]; 13 strains, read-out: MIC 90%) | MIC ([1]; 13 strains) | MIC90 [2] | MIC50 ([2]; 23 strains) | MIC ([2]; 23 strains) | MIC50 ([3]; 31 strains) | MIC90 ([3]; 31 strains, read-out: MIC 90%) | MIC ([3]; 31 strains) | MIC50 [4] | MIC90 [4] | MIC90 ([2]; 23 strains, read-out: MIC 90%) | MIC [4] | MIC90 [3] | also measured |
| --- | --- | --- | --- | --- | --- | --- | --- | --- | --- | --- | --- | --- | --- | --- | --- |
| CC1(C)S[C@@H]2[C@H](NC(=O)[C@H](N)c3ccccc3)C(=O)N2[C@H]1C(=O)O [Ampicillin] | ≤ 0.5 µg/mL | 4 µg/mL (≈ 11.4 µM) | 0.5 to 4 µg/mL (≈ 1.43 to 11.4 µM) | < 0.5 µg/mL | ≤ 0.5 µg/mL | 0.5 to 2 µg/mL (≈ 1.43 to 5.72 µM) | ≤ 0.5 µg/mL | 1 µg/mL (≈ 2.86 µM) | 0.5 to 2 µg/mL (≈ 1.43 to 5.72 µM) | 4 µg/mL (≈ 11.4 µM) | 64 µg/mL (≈ 183 µM) | – | – | – | – |
| CCC[C@@H]1C[C@@H](C(=O)N[C@@H]([C@H]2O[C@H](SC)[C@H](O)[C@@H](O)[C@H]2O)[C@H](C)Cl)N(C)C1 [Clindamycin] | ≤ 0.06 µg/mL | < 0.06 µg/mL | ≤ 0.06 µg/mL | – | ≤ 0.06 µg/mL | 0.06 to 0.25 µg/mL (≈ 0.141 to 0.588 µM) | 0.25 µg/mL (≈ 0.588 µM) | 4 µg/mL (≈ 9.41 µM) | 0.06 to 4 µg/mL (≈ 0.141 to 9.41 µM) | ≤ 0.06 µg/mL | < 0.06 µg/mL | < 0.06 µg/mL | ≤ 0.06 µg/mL | – | side effects ([5]; compared with drugs currently used): serious side effects, particularly on the gastrointestinal tract with serious forms of diarrhea and pseudo-membranous colitis that can even lead to the death of the patient |
| Cc1ncc([N+](=O)[O-])n1CCO [Metronidazole] | > 16 µg/mL | – | – | > 16 µg/mL | > 16 µg/mL | – | > 16 µg/mL | – | > 16 µg/mL | 2 µg/mL (≈ 11.7 µM) | 4 µg/mL (≈ 23.4 µM) | – | 0.5 to 8 µg/mL (≈ 2.92 to 46.7 µM) | > 16 µg/mL | MIC90 [1]: > 16 µg/mL; side effects ([5]; in vivo): serious side effects particularly on the blood and on the central nervous system |
| CO[C@H]1/C=C/O[C@@]2(C)Oc3c(C)c(O)c4c(O)c(c5c(nc6cc(C)ccn65)c4c3C2=O)NC(=O)/C(C)=C\C=C\[C@H](C)[C@H](O)[C@@H](C)[C@@H](O)[C@@H](C)[C@H](OC(C)=O)[C@@H]1C [Rifaximin, 4-desoxy-4'-methyl-pyrido [1'2':1.2] imidazo [5.4-c] rifamycin SV] | ≤ 0.03 µg/mL | < 0.03 µg/mL | ≤ 0.03 µg/mL | – | 0.5 µg/mL (≈ 0.636 µM) | 0.25 to 1 µg/mL (≈ 0.318 to 1.27 µM) | 0.12 µg/mL (≈ 0.153 µM) | – | 0.3 to 1 µg/mL (≈ 0.382 to 1.27 µM) | 0.12 µg/mL (≈ 0.153 µM) | 0.25 µg/mL (≈ 0.318 µM) | 1 µg/mL (≈ 1.27 µM) | 0.03 to 0.5 µg/mL (≈ 0.0382 to 0.636 µM) | 0.5 µg/mL (≈ 0.636 µM) | MIC [6]: ≥ 64 µg/mL; MIC50 ([6]; 25 strains): 64 µg/mL (≈ 81.4 µM); MIC90 ([6]; 25 strains): > 64 µg/mL; MIC50 ([7]; 20 strains): 64 µg/mL (≈ 81.4 µM); MIC90 ([7]; 20 strains): ≥ 64 µg/mL; MIC ([7]; 20 strains, read-out: MIC Range of Concentration Value): ≥ 64 µg/mL; MIC ([7]; read-out: M.I.C.): ≥ 64 µg/mL; MIC90 [8]: 16 µg/mL (≈ 20.4 µM); MIC50 ([8]; 60 strains): 0.25 µg/mL (≈ 0.318 µM); susceptibility [9]: has shown susceptibility to rifaximin; MIC90 ([9]; Chlamydia trachomatis, 6 strains): < 20 µg/mL; MIC ([9]; Chlamydia trachomatis, 6 strains, read-out: MIC Range of Concentration Value): 10 to 20 µg/mL (≈ 12.7 to 25.4 µM); MIC ([9]; Chlamydia trachomatis, read-out: M.I.C.): > 20 µg/mL; MIC90 [10]: 0.5 µg/mL (≈ 0.636 µM); MIC50 ([10]; 25 strains): 0.25 µg/mL (≈ 0.318 µM); MIC ([10]; 25 strains, read-out: MIC Range of Concentration Value): 0.03 to 0.5 µg/mL (≈ 0.0382 to 0.636 µM) |
